Results reported in patent US11396511B2, “Substituted 9,13b-dihydro-1H-dibenzo[c,f]imidazo[1,5-a]azepin-3-ylbenzamides as anti-inflammatory and analgesic agents” (FRONTBIO CO., LTD., priority 2017, dated 2022).
“And” between values parts separate entries of the source, which are not always exact repeats. Equal entries are not always repeated.

How the values were obtained:
[1] = system: mice; test: Formalin test (5% formalin, hind foot sole); type: in vivo; set-up: formalin test pain response: unit not given beside the values
Method: 5% formalin was injected subcutaneously into the soles of the hind feet of mice. The mice licked their soles and shook their paws owing to formalin-induced pain. At 20-40 min post-injection (2nd phase), the mice again licked their soles or shook their paws. Pain felt for 5 min post-injection (1st phase) is the same level as the sensation of pain when the body is harmfully stimulated. Pain between 20 and 40 min (2nd phase) is mainly tonic inflammatory pain and is known to be very similar to pain after a big surgical operation.
30 min after pretreatment with the compound 3 (E-S) at concentrations of 10, 20, 40, and 80 mg/kg, formalin test was conducted to assess the analgesic efficacy of the compound 3. […] The analgesic efficacy of the compound 4 (E-A) was assessed in the same manner as that of the compound 3.

[2] = system: mice; test: Hot-plate test; type: in vivo; details: for response time to the thermal stimulus (hot-plate): 30 min pretreatment, in s (unit assumed)
Method: Hot-plate test was conducted using an electric heater to measure the analgesic activity of the test substances on the acute thermal stimulus. Experimental animals were injected with the test drugs and a vehicle (control) and were sequentially placed on an electric heater (hot-plate). The response time to the thermal stimulus ([…]) was defined as the time until the experimental animal licked their paws. Male mice weighing 22-25 g, aged 4-5 weeks, were used as the test animals (10 per group).
30 min after pretreatment with the compound 3 (E-S) at concentrations of 10, 20, 40, and 80 mg/kg, hot-plate test was conducted to assess the analgesic efficacy of the compound 3. […] The analgesic efficacy of the compound 4 (E-A) was assessed in the same manner as that of the compound 3.

[3] = system: Raw 264.7 cells; test: Cell viability measurement (MTS); type: cell-based
Method: Raw 264.7 cells were plated in a 96-well cell culture plate (50,000 cells/well). The cell culture media were removed from the 96-well cell culture plate. 100 μl of MTS reagent (CellTiter 96 AQueous One Solution Cell Proliferation Assay, Promega) was added to each well and the reaction was allowed to proceed at 37° C. for 20 min. After the reaction was finished, the cell viability were determined by measuring the absorbance at a wavelength of 490 nm.

[4] = system: Raw 264.7 cells; test: Measurement of NO production in LPS-stimulated Raw 264.7 cells; type: cell-based
Method: Raw 264.7 cells were plated in a 96-well cell culture plate (50,000 cells/well). Lipopolysaccharide (LPS) was diluted to 100 ng/ml and the dilution was added to the cell culture media The LPS stimulus was applied for 24 h to induce the activity of the Raw 264.7 cells and supernatants (50 μl each) obtained from the 96-well cell culture plate were plated in a new plate. 50 μl of a sulfanilamide solution was added and the reaction was allowed to proceed for 10 min. 50 μl of a NED solution was added and the reaction was allowed to proceed for 10 min. The amount of NO produced from the cells in the cell culture media was determined by measuring the absorbance at a wavelength of 540 nm.

[5] = system: mice; test: Writhing test (1% acetic acid intraperitoneally); type: in vivo; details: for numbers of stretching and writhing movements: 30 min pretreatment
Method: In accordance with the most common method for measuring the analgesic efficacies of the test substances in the peripheral nerve based on abdominal contraction responses as indices, 1% acetic acid was administered intraperitoneally to mice to induce damage or pain of the abdominal peripheral vessels. After acetic acid administration, the behavioral profiles of the mice were observed and the numbers of stretching and writhing movements of the mice were counted to determine the analgesic efficacies of the test substances.
30 min after pretreatment with the compound 3 (E-S) at concentrations of 10, 20, 40, and 80 mg/kg, writhing test was conducted to assess the analgesic efficacy of the compound 3. As a result, the analgesic efficacy of the compound 3 was concentration-dependent (FIG. 4a and Table 4). The analgesic efficacy of the compound 4 (E-A) was assessed in the same manner as that of the compound 3.

[6] = system: streptozotocin-induced diabetic mice; test: Von-frey test in diabetic neuropathy models; type: in vivo; set-up: threshold values (Von-frey test): unit not given here
Method: 65 mg/kg of streptozotocin (Sigma Corp., USA) was dissolved at a concentration of 15 mg/ml in 0.1 M citrate buffer at pH 4.5 and the resulting solution was administered intraperitoneally to mice. Blood glucose levels were measured 1 week after administration and streptozotocin-induced diabetic mice were chosen.
After damage to the sciatic nerve, allodynia induced by the mechanical stimulus was measured. Mice were housed in acrylic chambers on a steel mesh floor and acclimated for ≥60 min before testing. Continuous responses were evaluated using Von-frey filaments by the up-down method. The filaments were brought into vertical contact with the affected left soles and the contact was maintained for 5-6 sec. The response was considered to be positive when the mouse rapidly avoided the stimulus, startled or licked its sole. The Von-frey filaments were first used to stimulate the mice.
The inhibitory effects of the test substances on pain were determined in diabetic neuropathy models. To this end, after oral administration of each test substance at concentrations of 10, 20, 40, and 80 mg/kg, threshold values were measured at different periods of time through Von-frey test.

For CC(=O)Oc1ccccc1C(=O)NC1=NCC2c3ccccc3Cc3ccccc3N12 (stereo not drawn) [E-A, 2-((9,13b-dihydro-1H-dibenzo[c,f]imidazo[1,5-a]azepin-3-yl)carbamoyl)phenyl acetate], the “formalin test pain response” value ([1]; 10 mg/kg, first column group (1st phase, not given)) was 73.0, the “formalin test pain response” value ([1]; 10 mg/kg, second column group (2nd phase, not given)) was 102.0 and the “formalin test pain response” value ([1]; 20 mg/kg, first column group (1st phase, not given)) was 54.7. The “formalin test pain response” value ([1]; 20 mg/kg, second column group (2nd phase, not given)) was 83.5, the “formalin test pain response” value ([1]; 40 mg/kg, first column group (1st phase, not given)) was 62.0 and the “formalin test pain response” value ([1]; 40 mg/kg, second column group (2nd phase, not given)) was 60.0. For the same compound, the “formalin test pain response” value ([1]; 80 mg/kg, first column group (1st phase, not given)) was 61.5, the “formalin test pain response” value ([1]; 80 mg/kg, second column group (2nd phase, not given)) was 60.0 and the “analgesic efficacy in formalin test (in words)” value ([1]; 10, 20, 40, 80 mg/kg) was “observed in the 2n^d phase”. For the same compound, the “response time to the thermal stimulus (hot-plate)” value (shortened to “response time”) ([2]; 10 mg/kg) was 9.58, the “response time” value ([2]; 20 mg/kg) was 14.98 and the “response time” value ([2]; 40 mg/kg) was 17.42. The “response time” value ([2]; 80 mg/kg) was 18.30, the “analgesic efficacy in hot-plate test (in words)” value ([2]; 10, 20, 40, 80 mg/kg) was “observed in the 2nd phase” and the “cell toxicity (cell viability, MTS)” value [3] was “no cell toxicities were observed”. For the same compound, the inhibition at 12.5 µM ([4]; Mus musculus, RAW264.7, 12.5 μM, LPS 100 ng/ml, 24 h) was 0%, the inhibition at 25 µM ([4]; Mus musculus, RAW264.7, 25 μM, LPS 100 ng/ml, 24 h) was 17.1% and the inhibition at 50 µM ([4]; Mus musculus, RAW264.7, 50 μM, LPS 100 ng/ml, 24 h) was 40.1%. The inhibition at 100 µM ([4]; Mus musculus, RAW264.7, 100 μM, LPS 100 ng/ml, 24 h) was 52.4%, the “reduction of NO production (in words)” value ([4]; together with LPS (100 ng/ml)) was “concentration-dependent reduction in NO production” and the “numbers of stretching and writhing movements” value (from here on “numbers”) ([5]; 10 mg/kg) was 8.25. For the same compound, the “numbers” value ([5]; 20 mg/kg) was 13.75, the “numbers” value ([5]; 40 mg/kg) was 11.25 and the “numbers” value ([5]; 80 mg/kg) was 12.25. For the same compound, the “concentration of best analgesic efficacy in writhing test” value ([5]; 10, 20, 40, 80 mg/kg tested) was 10 mg/kg, the “threshold values (Von-frey test)” value ([6]; oral 10 mg/kg, 1 h) was 0.260 and the “threshold values (Von-frey test)” value ([6]; oral 10 mg/kg, 2 h) was 0.263. The “threshold values (Von-frey test)” value ([6]; oral 10 mg/kg, 3 h) was 0.324, the “threshold values (Von-frey test)” value ([6]; oral 10 mg/kg, 4 h) was 0.286 and the “threshold values (Von-frey test)” value ([6]; oral 10 mg/kg, 5 h) was 0.225. The “threshold values (Von-frey test)” value ([6]; oral 10 mg/kg, basal) was 0.286, the “threshold values (Von-frey test)” value ([6]; oral 20 mg/kg, 1 h) was 0.263 and the “threshold values (Von-frey test)” value ([6]; oral 20 mg/kg, 2 h) was 0.324. The “threshold values (Von-frey test)” value ([6]; oral 20 mg/kg, 3 h) was 0.321, the “threshold values (Von-frey test)” value ([6]; oral 20 mg/kg, 4 h) was 0.247 and the “threshold values (Von-frey test)” value ([6]; oral 20 mg/kg, 5 h) was 0.225. For the same compound, the “threshold values (Von-frey test)” value ([6]; oral 20 mg/kg, basal) was 0.186, the “threshold values (Von-frey test)” value ([6]; oral 40 mg/kg, 1 h) was 0.286 and the “threshold values (Von-frey test)” value ([6]; oral 40 mg/kg, 2 h) was 0.458. The “threshold values (Von-frey test)” value ([6]; oral 40 mg/kg, 3 h) was 0.419, the “threshold values (Von-frey test)” value ([6]; oral 40 mg/kg, 4 h) was 0.391 and the “threshold values (Von-frey test)” value ([6]; oral 40 mg/kg, 5 h) was 0.186. For the same compound, the “threshold values (Von-frey test)” value ([6]; oral 40 mg/kg, basal) was 0.247, the “threshold values (Von-frey test)” value ([6]; oral 80 mg/kg, 1 h) was 0.391 and the “threshold values (Von-frey test)” value ([6]; oral 80 mg/kg, 2 h) was 0.391. For the same compound, the “threshold values (Von-frey test)” value ([6]; oral 80 mg/kg, 3 h) was 0.247, the “threshold values (Von-frey test)” value ([6]; oral 80 mg/kg, 4 h) was 0.286 and the “threshold values (Von-frey test)” value ([6]; oral 80 mg/kg, 5 h) was 0.186. For the same compound, the “threshold values (Von-frey test)” value ([6]; oral 80 mg/kg, basal) was 0.208, the “analgesic efficacy, Von-frey test (in words)” value ([6]; oral 10, 20, 40, 80 mg/kg) was “concentration-dependent from 1 h after treatment and was maintained until 3 h after treatment” and the “concentration of highest analgesic efficacy, Von-frey test” value ([6]; oral 10, 20, 40, 80 mg/kg tested) was 40 mg/kg and 80 mg/kg.
